Among the data in article PMC6934184, “Selective DNA-PKcs inhibition extends the therapeutic index of localized radiotherapy and chemotherapy” (The Journal of Clinical Investigation, 2019) are inhibition values, retold here.

The target of this assay is T1, LYN B (Homo sapiens, UniProt P07948).
T1 construct: purchased Thermo Fisher Scientific (Life Technologies) SelectScreen
Kind of assay: SelectScreen Z'LYTE. In kind it is biochemical. Here is the method: The in vitro kinase selectivity of NU5455 was determined using the SelectScreen Broad Assay Panel (Thermo Fisher Scientific) involving activity and binding assays (Supplemental Table 1). […] Class IA PI3Ks were measured using the p85α subunit.
Kinase [ATP] % Assay Kinase [ATP] % Assay Kinase [ATP] % Assay Kinase [ATP] % Assay […]
CHEK1 (CHK1) Km app 9.3 Z LYN B Km app 3.0 Z TGFBR2 n/a -0.1 L PDGFRA D842V Km app -5.0 Z […]
SGK (SGK1) Km app 8.5 Z MAP4K2 (GCK) Km app 2.7 Z TLK2 n/a -0.3 L STK38 (NDR) n/a -5.9 L
MERTK (cMER) Km app 8.3 Z CDK2/cyclin A Km app 2.7 Z TGFBR1 (ALK5) n/a -0.4 L MATK (HYL) Km app -6.3 Z
FYN Km app 8.3 Z EPHA1 Km app 2.7 Z CLK3 Km app -0.5 Z ABL1 E255K Km app -6.6 Z
TEC n/a 8.1 L CDK2/cyclin E1 n/a 2.7 L MAP3K14 (NIK) n/a -0.5 L STK17A (DRAK1) n/a -6.6 L
KIT V654A n/a 8.1 L TESK2 n/a 2.7 L AKT3 (PKB gamma) Km app -0.5 Z JAK2 JH1 JH2 Km app -6.7 Z
ROS1 Km app 8.0 Z SPHK1 Km app 2.7 A MAP3K9 (MLK1) Km app -0.5 Z PRKACB (PRKAC beta) n/a -6.8 L
FGFR3 K650E Km app 7.9 Z AMPK A2/B1/G1 Km app 2.6 Z IKBKB (IKK beta) Km app -0.6 Z PDGFRA (PDGFR alpha) Km app -6.8 Z
RAF1 (cRAF) Y340D Y341D 100 7.9 Z DYRK3 Km app 2.6 Z CAMK2A (CaMKII alpha) Km app -0.6 Z NEK9 Km app -7.2 Z
PI4KA (PI4K alpha) 10 7.8 A CSNK1D (CK1 delta) Km app 2.6 Z PRKCB1 (PKC beta I) Km app -0.7 Z PDK1 Km app -7.3 Z
HIPK2 Km app 7.8 Z ACVR2A n/a 2.5 L TTK n/a -0.7 L RPS6KB1 (p70S6K) Km app -7.8 Z […]

The structures appear in SMILES notation.

T1 sequence (P07948 1-491 isoform P07948-2): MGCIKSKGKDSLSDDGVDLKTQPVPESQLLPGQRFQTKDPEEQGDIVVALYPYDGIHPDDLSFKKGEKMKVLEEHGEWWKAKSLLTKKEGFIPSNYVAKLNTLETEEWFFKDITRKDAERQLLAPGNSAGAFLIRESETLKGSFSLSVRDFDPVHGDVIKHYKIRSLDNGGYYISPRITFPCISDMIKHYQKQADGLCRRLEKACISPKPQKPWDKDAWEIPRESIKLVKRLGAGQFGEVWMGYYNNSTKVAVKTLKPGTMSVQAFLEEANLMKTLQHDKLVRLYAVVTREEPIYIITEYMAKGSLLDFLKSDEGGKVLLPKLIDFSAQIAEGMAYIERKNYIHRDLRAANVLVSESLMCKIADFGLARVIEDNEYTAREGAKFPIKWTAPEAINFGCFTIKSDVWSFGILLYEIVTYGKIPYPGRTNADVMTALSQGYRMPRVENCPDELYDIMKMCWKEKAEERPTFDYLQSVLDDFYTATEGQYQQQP

On to `CN(C(=O)CN1CCOCC1)c1ccc2sc3c(-c4cccc5c(=O)cc(N6CC7CCC(C6)O7)oc45)cccc3c2c1` [NU5455], for which testing at 1 µM gave an inhibition of 3%.
